Reference: patent publication US20020052295A1, “Diacyl derivatives of propylene diamine having herbicidal activity” (priority 1999, published 2002)

Key:
Conditions in all cases: lowest tested rate giving 80% or greater inhibition, approx. 14 days after planting and treating, greenhouse
[1] = test system: PANDI; experiment: Pre-emergence herbicidal activity on PANDI (fall panicum); assay type: in vivo, Panicum dichotomiflorum
Text: (§1) All such uses, and the biological activity enabling such uses, are embraced by the term “herbicidal” herein. Tables 15 and 16 summarize results of tests conducted as described below to determine the pre-emergence herbicidal activity, in the form of a GR80 value, of illustrative compounds of this invention. […] Where herbicidal activity was evident but 80% inhibition was not achieved at the highest rate tested (typically 1000 g/ha), an asterisk (*) is shown in the following tables. Herbicidal activity evident in the form of symptoms of phytotoxicity, in the absence of at least 80% inhibition at any rate, is indicated in the tables by “phyto”. A blank cell in the following tables indicates no herbicidal or phytotoxic response at any rate tested.
(§2) The pre-emergence tests were conducted by the following procedure. Topsoil was sieved to pass through a 1.27 cm screen. Fertilizer was added to the topsoil and the mixture was then sterilized by heating. The topsoil mixture was placed in a pot and compacted to a depth of 1.0 to 1.25 cm from the top of the pot. Seeds of each of several monocotyledonous and dicotyledonous annual plant species were placed on top of the soil. Additional soil was subsequently placed over the seeds to level-fill the pot. A known amount of each test compound dissolved or suspended in an appropriate organic solvent was diluted with a 50:50 mix of acetone and water and applied to the surface of the soil. After treatment the plants were placed in a greenhouse with a 30/21° C. day/night temperature regime where they received 0.64 cm of overhead irrigation. All subsequent watering consisted of a light overhead mist and/or subirrigation as needed for germination and growth.
(§3) Approximately 14 days after planting and treating, the plants were observed and herbicidal efficacy recorded as percent inhibition by comparison with untreated plants.
(§4) The plant species usually regarded as weeds which were utilized in the tests are identified in the tables below according to the following legend, in which “d” indicates a dicotyledonous species and “m” a monocotyledonous species. All monocotyledonous species included in the tests herein are grasses.

[2] = test system: CHEAL; experiment: Pre-emergence herbicidal activity on CHEAL (common lambsquarters); assay type: in vivo, Chenopodium album
Text: as §1, §2, §3, §4

[3] = test system: SETFA; experiment: Pre-emergence herbicidal activity on SETFA (giant foxtail); assay type: in vivo, Setaria faberi
Text: as §1, §2, §3, §4

[4] = test system: SOLNI; experiment: Pre-emergence herbicidal activity on SOLNI (black nightshade); assay type: in vivo, Solanum nigrum
Text: as §1, §2, §3, §4

[5] = test system: CONAR; experiment: Pre-emergence herbicidal activity on CONAR (field bindweed); assay type: in vivo, Convolvulus arvensis
Text: as §1, §2, §3, §4

[6] = test system: DIGSA; experiment: Pre-emergence herbicidal activity on DIGSA (large crabgrass); assay type: in vivo, Digitaria sanguinalis
Text: as §1, §2, §3, §4

[7] = test system: POROL; experiment: Pre-emergence herbicidal activity on POROL (common purslane); assay type: in vivo, Portulaca oleracea
Text: as §1, §2, §3, §4

[8] = test system: CIRAR; experiment: Pre-emergence herbicidal activity on CIRAR (canada thistle, seedling); assay type: in vivo, Cirsium arvense
Text: as §1, §2, §3, §4

[9] = test system: ECHCG; experiment: Pre-emergence herbicidal activity on ECHCG (barnyardgrass); assay type: in vivo, Echinochloa crus-galli
Text: as §1, §2, §3, §4

[10] = test system: DATST; experiment: Pre-emergence herbicidal activity on DATST (jimsonweed); assay type: in vivo, Datura stramonium
Text: as §1, §2, §3, §4

[11] = test system: AMARE; experiment: Pre-emergence herbicidal activity on AMARE (redroot pigweed); assay type: in vivo, Amaranthus retroflexus
Text: as §1, §2, §3, §4

[12] = test system: BRAPP; experiment: Pre-emergence herbicidal activity on BRAPP (broadleaf signalgrass); assay type: in vivo, Brachiaria platyphylla
Text: as §1, §2, §3, §4

[13] = test system: PANMI; experiment: Pre-emergence herbicidal activity on PANMI (wild proso millet); assay type: in vivo, Panicum miliaceum
Text: as §1, §2, §3, §4

[14] = test system: SORHA; experiment: Pre-emergence herbicidal activity on SORHA (johnsongrass, seedling); assay type: in vivo, Sorghum halepense
Text: as §1, §2, §3, §4

[15] = test system: ABUTH; experiment: Pre-emergence herbicidal activity on ABUTH (velvetleaf); assay type: in vivo, Abutilon theophrasti
Text: as §1, §2, §3, §4

Compound | Pre-emergence activity (GR80) on PANDI [1] | Pre-emergence activity (GR80) on CHEAL [2] [g/ha] | Pre-emergence activity (GR80) on SETFA [3] | Pre-emergence activity (GR80) on SOLNI [4] | Pre-emergence activity (GR80) on CONAR [5] | Pre-emergence activity (GR80) on DIGSA [6] | Pre-emergence activity (GR80) on PORAL [7] [g/ha] | Pre-emergence activity (GR80) on CIRAR [8] | Pre-emergence activity (GR80) on ECHCG [9] | Pre-emergence activity (GR80) on DATST [10] | Pre-emergence activity (GR80) on AMARE [11] [g/ha] | Pre-emergence activity (GR80) on BRAPP [12] | Pre-emergence activity (GR80) on PANMI [13] | Pre-emergence activity (GR80) on SORHA [14] | Pre-emergence activity (GR80) on ABUTH [15]
CC(CNC(=O)c1cccc(C(F)(F)F)c1)NC(=O)c1cccc(C(F)(F)F)c1I (stereo not shown) [Example 15] | phyto | 125 | phyto | * (Where herbicidal activity was evident but 80% inhibition was not achieved at the highest rate tested (typically 1000 g/ha), an asterisk (*) is shown) | phyto | phyto | 500 | phyto | phyto | * (Where herbicidal activity was evident but 80% inhibition was not achieved at the highest rate tested (typically 1000 g/ha), an asterisk (*) is shown) | 64 |  |  |  | 
CC(CNC(=O)c1cccc(C(F)(F)F)c1)NC(=O)c1cc(C(F)(F)F)ccc1Cl (stereo not shown) [Example 9] | 500 g/ha | 500 | 1000 g/ha | 500 g/ha |  | 500 g/ha | 125 | 750 g/ha | phyto | 500 g/ha | 125 | phyto | phyto | * (Where herbicidal activity was evident but 80% inhibition was not achieved at the highest rate tested (typically 1000 g/ha), an asterisk (*) is shown) | phyto
Cc1cccc(C(=O)NC(C)CNC(=O)c2cccc(C(F)(F)F)c2)c1C (stereo not shown) [Example 67] | 500 g/ha | 250 | 750 g/ha |  | 1000 g/ha | 500 g/ha | 500 | 500 g/ha | * (Where herbicidal activity was evident but 80% inhibition was not achieved at the highest rate tested (typically 1000 g/ha), an asterisk (*) is shown) | 500 g/ha | 500 | 1000 g/ha |  |  | 500 g/ha
CC(CNC(=O)c1cccc(C(F)(F)F)c1)NC(=O)c1cc(C(C)(C)C)nn1C (stereo not shown) [Example 262] |  |  |  |  | phyto | phyto |  |  |  |  |  |  |  |  | 
Cc1c(C(=O)NC(C)CNC(=O)c2cccc(C(F)(F)F)c2)cccc1C(F)(F)F (stereo not shown) [Example 16] | * (Where herbicidal activity was evident but 80% inhibition was not achieved at the highest rate tested (typically 1000 g/ha), an asterisk (*) is shown) | 1000 | 500 g/ha | 500 g/ha |  | 750 g/ha |  | 750 g/ha |  | 1000 g/ha | 250 |  | 1000 g/ha |  | * (Where herbicidal activity was evident but 80% inhibition was not achieved at the highest rate tested (typically 1000 g/ha), an asterisk (*) is shown)
CC(CNC(=O)c1cccc(Br)c1)NC(=O)c1cccc(C(F)(F)F)c1F (stereo not shown) [Example 152] |  | 250 |  | 500 g/ha |  | 500 g/ha | 125 | 250 g/ha | 750 g/ha | 750 g/ha | 250 |  |  |  | 750 g/ha
CC(CNC(=O)c1cccc(C(F)(F)F)c1)NC(=O)c1cccc(Cl)c1 (stereo not shown) [Example 43] | phyto | 500 | phyto | phyto |  | 750 g/ha | 500 | * (Where herbicidal activity was evident but 80% inhibition was not achieved at the highest rate tested (typically 1000 g/ha), an asterisk (*) is shown) |  | phyto | 250 | phyto | phyto | phyto | 
CC(CNC(=O)c1cccc(F)c1)NC(=O)c1cccc(C(F)(F)F)c1F (stereo not shown) [Example 142] | 500 g/ha | 500 | 125 g/ha | 750 g/ha |  | 250 g/ha | 125 | 64 g/ha |  | 750 g/ha | 125 | 750 g/ha | 1000 g/ha |  | 1000 g/ha
CCOc1c(F)cccc1C(=O)N[C@H](C)CNC(=O)c1cccc(C(F)(F)F)c1 [Example 41, R-2-ethoxy-3-fluoro-N-[1-methyl-2-(3-trifluoromethyl)phenylcarbonylamino]ethylbenzamide] | 750 g/ha | 750 | 1000 g/ha | phyto |  |  | 500 |  |  | 1000 g/ha | 250 |  | phyto | phyto | 
Cc1ccc(C)c(C(=O)NC(C)CNC(=O)c2cccc(C(F)(F)F)c2)c1 (stereo not shown) [Example 64] | 250 g/ha | 250 | 1000 g/ha | 250 g/ha |  | 250 g/ha | 250 | 250 g/ha | 1000 g/ha | 1000 g/ha | 250 | 500 g/ha | 500 g/ha | * (Where herbicidal activity was evident but 80% inhibition was not achieved at the highest rate tested (typically 1000 g/ha), an asterisk (*) is shown) | 500 g/ha
CC(CNC(=O)c1cccc(Cl)c1F)NC(=O)c1cccc(Cl)c1F (stereo not shown) [Example 181] | phyto | 750 | phyto | * (Where herbicidal activity was evident but 80% inhibition was not achieved at the highest rate tested (typically 1000 g/ha), an asterisk (*) is shown) | phyto | 500 g/ha |  | * (Where herbicidal activity was evident but 80% inhibition was not achieved at the highest rate tested (typically 1000 g/ha), an asterisk (*) is shown) |  | * (Where herbicidal activity was evident but 80% inhibition was not achieved at the highest rate tested (typically 1000 g/ha), an asterisk (*) is shown) | 500 |  |  |  | phyto
